Assays:
[1] = tested on: STZ-induced diabetic CD-1 mice; experiment: Insulin tolerance test (ITT); assay type: in vivo; conditions: single intragastric dose 50 mg/kg, insulin 0.75 IU after 30 min
Description: The studies were carried out on compounds 4b, 4g, and 5g using both normoglycemic CD1 mice and a mouse model of noninsulin-dependent diabetes mellitus (NIDDM). An oral glucose tolerance test (OGTT) was conducted on the normoglycemic mice to evaluate the hypoglycemic activity of the compounds, while an insulin tolerance test (ITT) was performed on hyperglycemic CD1 mice to assess the compounds' capacity to enhance insulin sensitivity in streptozotocin-induced diabetic mice. Pioglitazone and GA were included as positive controls. […] Healthy six-week-old male CD-1 mice, weighing between 30 and 40 g, were maintained at a temperature of 25 ± 2 °C, under a 12-h light/dark cycle and 45-65% humidity throughout the experimental period. The mice were provided with a rodent pelleted diet (Harlan Laboratories, Indianapolis, USA) and had access to water ad libitum. Sixteen hours before the experiment, all mice were fasted but still had free access to water. All animal procedures were conducted in accordance with the Mexican Federal Regulations for Animal Experimentation and Care (SAGARPA, NOM-062-ZOO-1999, Mexico) and received approval from the Institutional Animal Care and Use Committee, following guidelines outlined in the US National Institutes of Health publication (No. 85-23, revised 1985). Streptozotocin (STZ) was dissolved in citrate buffer (pH 4.5), while nicotinamide was dissolved in a normal physiological saline solution. The noninsulin-dependent diabetes (NIDD) mouse model was induced in overnight-fasted mice through a single intraperitoneal injection of STZ (100 mg/kg). Nicotinamide was administered 15 min prior, at a dose of 20 mg/kg via intraperitoneal injection. […] Roche). […] Animals were categorized into five groups, each consisting of four mice (n = 4). The experimental groups received an oral suspension of compounds 4b, 4g, and 5g, prepared in a 10% Tween 20/water solution, at a dosage of 50 mg/kg body weight. A control group was treated with only the 10% Tween 20 solution. The final group was administered pioglitazone at a dose of 45 mg/kg, which is recognized as a reference drug for insulin sensitization. To evaluate glucose levels, blood samples were collected from the tails of the mice at 0, 30, 60, 90, and 120 min after the administration of the vehicle, test compound, or drug. Blood glucose concentration was measured using a commercial glucometer (Accu-Chek, Performa; Roche) and the enzymatic glucose dehydrogenase method. The percentage variation in glycemia was calculated by comparing the selected postadministration glycemia (G x ) with the initial value (G0) using the following formula: %[…]=[(Gx-G0)/G0]×100 where G0 represents the initial glycemia values and Gx indicates the glycemia values at +30, + 60, + 90, and +120 min, respectively. To evaluate the ability of GA derivatives to enhance insulin sensitivity in STZ-induced diabetic CD-1 mice, compounds 4b, 4g, and 5g were tested. Glycyrrhetinic acid (GA) and Pioglitazone served as positive controls. The GA derivatives and the positive controls were administered to the diabetic animals, followed by the administration of human rapid-acting insulin (0.75 IU) after 30 min. Subsequently, glucose levels were measured every 15 min.

hPTP1B1–400 [2] = target: T1, hPTP1B1–400 (Homo sapiens, UniProt P18031); experiment: PTP1B inhibition, pNPP hydrolysis, long form; assay type: biochemical; conditions: pNPP substrate, 15 min 37 °C, pH 6.8; ± S.D
T1 construct: h PTP1B 1–400 IC 50 (μM ± S.D); made in house
T1 sequence (P18031 1-400): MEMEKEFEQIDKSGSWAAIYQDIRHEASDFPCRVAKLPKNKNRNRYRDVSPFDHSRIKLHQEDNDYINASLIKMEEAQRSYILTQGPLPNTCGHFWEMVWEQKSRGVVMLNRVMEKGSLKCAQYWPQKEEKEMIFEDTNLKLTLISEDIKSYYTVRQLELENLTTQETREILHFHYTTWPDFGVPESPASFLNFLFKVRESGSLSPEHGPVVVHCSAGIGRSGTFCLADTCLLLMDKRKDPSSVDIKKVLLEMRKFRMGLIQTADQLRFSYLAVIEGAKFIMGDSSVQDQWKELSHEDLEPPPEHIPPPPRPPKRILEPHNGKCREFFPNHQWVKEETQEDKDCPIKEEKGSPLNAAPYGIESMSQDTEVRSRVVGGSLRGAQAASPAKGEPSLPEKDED
Description: The inhibitory activity of PTP1B was assessed using the long form of the PTP1B enzyme (hPTP1B1–400). This enzyme comprises a highly conserved N-terminal catalytic domain, known as the PTP domain (PTP1B1–300), in addition to an intrinsically disordered regulatory domain (PTP1B301–400).
The IC50 values obtained from these tests are detailed in Table .
Aliquots of 0–10 μL of the test compounds (triplicate) were taken and incubated for 15 min at 37 °C with 85 μL of Tris buffer solution (50 mM, pH 6.8) containing PTP1B enzyme and 5 μL of p-nitrophenyl phosphate substrate (pNPP, 10 mM). The absorbance of the hydrolysis product, p-nitrophenol (pNP), was measured at 405 nm using a 96-microplate absorbance reader (Accuris SmartReader 96). The inhibitory activity was determined according to eq . %enzyme=(A405b/A405c)×100 1 Where: % enzyme is the percentage of inhibition for PTP1B or TCPTP
The IC50 was calculated using regression analysis, eq : %inhibition=A100/1+(I/IC50)^s 2 Where: A100: Maximum inhibition

hPTP1B1–400 [3] = target: T1, hPTP1B1–400; experiment: Enzymatic kinetics studies (Lineweaver–Burk, model fitting); assay type: biochemical; conditions: for inhibition type: hPTP1B1–400, best fit model; for Ki: hPTP1B1–400, pNPP 0.1–0.5 mM; for Km / Vmax: hPTP1B1–400 with inhibitor
Description: Kinetic analyses were conducted using varying concentrations of substrate and inhibitor.
Five increasing concentrations of each inhibitor were tested, according to their previously determined IC50 values. The negative control was prepared by omitting the inhibitor in the presence of the enzyme and substrate. The Supporting Information includes detailed eqs (E1–E5) used to determine the kinetic parameters and mechanisms involved in PTP1B inhibition.
Equation 1 was used to obtain enzyme kinetic parameters by fitting data to the Michaelis-Menten model (Origin Pro
The equations defined for the following non-linear inhibition models were used to determine the mechanism of
PTP1B inhibition: competitive (E2), non-competitive (E3), uncompetitive (E4), and mixed (E5) (Origin Pro 2018 (64
(1+ ( ))(x05nh ) + (1+ ( )) (x05 nh)
Vmax is the maximum velocity, x is the substrate concentration, i is the inhibitor concentration, nh is the number of
Hill. Ki is the inhibition constant, and Km is the Michaelis constant.

Row | SMILES | IC50 (hPTP1B1–400 [2]) [µM] | also measured
1 | CC1(C)[C@@H](O)CC[C@]2(C)[C@H]3C(=O)C=C4[C@@H]5C[C@@](C)(C(=O)O)CC[C@]5(C)CC[C@@]4(C)[C@]3(C)CC[C@@H]12 [GA, Glycyrrhetinic acid, reference compound] |  | glycemia variation in ITT [1]: markedly decrease glycemia variation
2 | CC1(C)c2c(cnn2-c2ccc(OC(F)(F)F)cc2)C[C@]2(C)[C@H]3C(=O)C=C4[C@@H]5C[C@@](C)(C(=O)O)CC[C@]5(C)CC[C@@]4(C)[C@]3(C)CC[C@@H]12 [compound 5a, (20β)-11-Oxo-2′-[4-(trifluoromethoxy)phenyl]-2′H-oleana-2,12-dieno[3,2-c]pyrazol-29-oic acid] | 2.29 ± 0.15 | 
3 | CC1(C)c2c(cnn2-c2ccc(OC(F)F)cc2)C[C@]2(C)[C@H]3C(=O)C=C4[C@@H]5C[C@@](C)(C(=O)O)CC[C@]5(C)CC[C@@]4(C)[C@]3(C)CC[C@@H]12 [compound 5b, (20β)-2′-[4-(Difluoromethoxy)phenyl]-11-Oxo-2′H-oleana-2,12-dieno[3,2-c]pyrazol-29-oic Acid] | 6.19 ± 0.58 | 
4 | CC1(C)c2c(cnn2-c2ccc(SC(F)(F)F)cc2)C[C@]2(C)[C@H]3C(=O)C=C4[C@@H]5C[C@@](C)(C(=O)O)CC[C@]5(C)CC[C@@]4(C)[C@]3(C)CC[C@@H]12 [compound 5c, (20β)-11-Oxo-2′-[4-(trifluoromethylthio)phenyl]-2′H-oleana-2,12-dieno[3,2-c]pyrazol-29-oic Acid] | 2.08 ± 0.04 | 
5 | CC1(C)c2c(cnn2-c2ccc(C#N)cc2)C[C@]2(C)[C@H]3C(=O)C=C4[C@@H]5C[C@@](C)(C(=O)O)CC[C@]5(C)CC[C@@]4(C)[C@]3(C)CC[C@@H]12 [compound 5d, (20β)-2′-(4-Cyanophenyl)-11-oxo-2′H-oleana-2,12-dieno[3,2-c]pyrazol-29-oic Acid] | 6.83 ± 0.17 | 
6 | CC1(C)c2c(cnn2-c2ccc(C(N)=O)cc2)C[C@]2(C)[C@H]3C(=O)C=C4[C@@H]5C[C@@](C)(C(=O)O)CC[C@]5(C)CC[C@@]4(C)[C@]3(C)CC[C@@H]12 [compound 5f, (20β)-2′-(4-Carbamoylphenyl)-11-oxo-2′H-oleana-2,12-dieno[3,2-c]pyrazol-29-oic Acid] | 10.3 ± 0.51 | 

Continued, in another order:

Row | IC50 (hPTP1B1–400 [2]) [µM] | SMILES | also measured
7 | 2.13 ± 0.13 | CC1(C)c2[nH]c3ccc(OC(F)(F)F)cc3c2C[C@]2(C)[C@H]3C(=O)C=C4[C@@H]5C[C@@](C)(C(=O)O)CC[C@]5(C)CC[C@@]4(C)[C@]3(C)CC[C@@H]12 [compound 4a, (20β)-5′-(Trifluoromethoxy)-11-oxo-1′H-oleana-2,12-dieno[3,2-b]indol-29-oic Acid] | inhibition type (hPTP1B1–400 [3]): uncompetitive; Ki (hPTP1B1–400 [3]): 0.74 ± 0.1 µM; Km (hPTP1B1–400 [3]): 1840 ± 190 µM; Vmax (hPTP1B1–400 [3]): 1.06 ± 0.24 mM/min
8 | 5.6 ± 0.12 | CC1(C)c2[nH]c3ccc(SC(F)(F)F)cc3c2C[C@]2(C)[C@H]3C(=O)C=C4[C@@H]5C[C@@](C)(C(=O)O)CC[C@]5(C)CC[C@@]4(C)[C@]3(C)CC[C@@H]12 [compound 4c, (20β)-5′-(Trifluormethylthio)-11-oxo-1′H-oleana-2,12-dieno[3,2-b]indol-29-oic Acid] | 
9 | 22.4 ± 0.53 | CC1(C)c2[nH]c3ccc(C#N)cc3c2C[C@]2(C)[C@H]3C(=O)C=C4[C@@H]5C[C@@](C)(C(=O)O)CC[C@]5(C)CC[C@@]4(C)[C@]3(C)CC[C@@H]12 [compound 4d, (20β)-5′-Cyano-11-oxo-1′H-oleana-2,12-dieno[3,2-b]indol-29-oic Acid] | 
10 | 4.33 ± 0.58 | CC1(C)c2[nH]c3ccc(C(=O)O)cc3c2C[C@]2(C)[C@H]3C(=O)C=C4[C@@H]5C[C@@](C)(C(=O)O)CC[C@]5(C)CC[C@@]4(C)[C@]3(C)CC[C@@H]12 [compound 4e, (20β)-5′-Carboxy-11-oxo-1′H-oleana-2,12-dieno[3,2-b]indol-29-oic Acid] | inhibition type (hPTP1B1–400 [3]): uncompetitive; Ki (hPTP1B1–400 [3]): 4.05 ± 0.67 µM; Km (hPTP1B1–400 [3]): 990 ± 190 µM; Vmax (hPTP1B1–400 [3]): 1.64 ± 0.23 mM/min
11 | 9.3 ± 0.25 | CC1(C)c2[nH]c3ccc(C(N)=O)cc3c2C[C@]2(C)[C@H]3C(=O)C=C4[C@@H]5C[C@@](C)(C(=O)O)CC[C@]5(C)CC[C@@]4(C)[C@]3(C)CC[C@@H]12 [compound 4f, (20β)-5′-Carbamoyl-11-oxo-1′H-oleana-2,12-dieno[3,2-b]indol-29-oic Acid] | 
